The test system of one data set is Sclerotinia sclerotiorum. Briefly: Fungicidal activity, fungicide growth rate method, SS. Format: cell-based. The conditions noted are these: Sclerotinia sclerotiorum, 50 μg/mL.
The test system of a further data set is wheat Gibberella zeae. Briefly: microbe, parasite or virus in culture. Format: cell-based. The following applies: Fusarium graminearum, read-out: fungicidal activity (growth inhibition rate), GZ, 50 μg/mL.
Data set [1] deals with Phytophthora infestans (Mont.) de Bary. Briefly: microbe, parasite or virus in culture. Type of data set: cell-based. The following applies: Phytophthora infestans, read-out: fungicidal activity (growth inhibition rate), PI, 50 μg/mL.
A further data set concerns Pellicularia sasakii. The data set is described as follows: Fungicidal activity, fungicide growth rate method, PS. Type of data set: cell-based. The conditions noted are these: 50 μg/mL; read-out: fungicidal activity (growth inhibition rate), PS.
For data set [2], the system named is Helicoverpa armigera (Hübner). The data set is described as follows: Insecticidal activity against Helicoverpa armigera (Hübner). Format: in vivo. The conditions noted are these: Helicoverpa armigera; 100 μg/mL; read-out: insecticidal activity, Helicoverpa armigera (Hübner).
A further data set has as its system Alternaria solani. The data set is described as follows: Fungicidal activity, fungicide growth rate method, AS. The following applies: Alternaria solani, 50 μg/mL; read-out: fungicidal activity (growth inhibition rate), AS. Format: cell-based.
The next data set concerns Rhizoctonia cerealis. The data set is described as follows: Fungicidal activity, fungicide growth rate method, RC. The following applies: Ceratobasidium cereale, 50 μg/mL; read-out: fungicidal activity (growth inhibition rate), RC. Type of data set: cell-based.
Data set [3] relates to Apis mellifera ligustica Spin. The following applies: for Death number after 24 h / Death number after 48 h: per replicate of 10 bees.
For data set [4], the system named is Mythimna separate (Walker). Briefly: Insecticidal activity against Mythimna separate (Walker). Format: in vivo. The following applies: Mythimna, 100 μg/mL; read-out: insecticidal activity, Mythimna separate (Walker).
The test system of a further data set is Caenorhabditis elegans. The data set is described as follows: Insecticidal activity against Caenorhabditis elegans. Type of data set: in vivo. The following applies: Caenorhabditis elegans, 100 μg/mL; read-out: insecticidal activity, Caenorhabditis elegans.
For another data set, the system named is Botrytis cinerea. Briefly: Fungicidal activity, fungicide growth rate method, BC. Type of data set: cell-based. The following applies: Botrytis cinerea, 50 μg/mL; read-out: fungicidal activity (growth inhibition rate), BC.
The next data set concerns Ostrinia furnacalis. Briefly: Insecticidal activity against Ostrinia furnacalis. Type of data set: in vivo. The conditions noted are these: Ostrinia furnacalis; 100 μg/mL; read-out: insecticidal activity, Ostrinia furnacalis.
Another data set concerns Cercospora arachidicola. Briefly: Fungicidal activity, fungicide growth rate method, CA. Format: cell-based. The conditions noted are these: Mycosphaerella arachidis, 50 μg/mL; read-out: fungicidal activity (growth inhibition rate), CA.
A further data set relates to Physalospora piricola. Briefly: Fungicidal activity, fungicide growth rate method, PP. Format: cell-based. The following applies: 50 μg/mL; read-out: fungicidal activity (growth inhibition rate), PP.

Several values for one entry are separate records, joined by “and”; a condition that tells them apart may be missing. Equal entries are not always repeated. Where two headings read alike, the source gives them in different places. Some results are limits rather than exact numbers.

`C=CC[C@@H]1C[C@@]2(O)C[C@@H](CC=C)[C@H]3CC=CC[C@@]32O1` [Zyj07-98]: the inhibition at 50 µg/mL is above 50% in the data set on Sclerotinia sclerotiorum; above 50% in the data set with wheat Gibberella zeae; 17% in data set [1]; 27% with Pellicularia sasakii; above 60% with Alternaria solani; above 70% in the data set on Rhizoctonia cerealis. Also, in the data set with Botrytis cinerea, the inhibition at 50 µg/mL was above 50%. The pest or weed control at 100 µg/mL in data set [2] stood at 0%; in [4], 0%; in the data set on Caenorhabditis elegans, 25%. In addition, the “Death rate after 48 h (%)” value in [3] (dosage 8.47 μg a.i./bee) is on record as 0%. The “Death number after 24 h” value in [3] (dosage 8.47 μg a.i./bee) was found to be 0. Further, the “Death number after 48 h” value in data set [3] (dosage 8.47 μg a.i./bee) stood at 0.

`C=CC[C@@H]1CC2=CC(=O)O[C@@]23CC=CC[C@H]13` [Zyj07-92]: the inhibition at 50 µg/mL with Sclerotinia sclerotiorum is 38%; in data set [1] it was 15%; with Pellicularia sasakii, 40%; in the data set on Alternaria solani, above 60%; in the data set on Rhizoctonia cerealis, above 70%; in the data set on Botrytis cinerea, 30%. For the same compound, the pest or weed control at 100 µg/mL in data set [2] was 0%; in [4], 20%; with Ostrinia furnacalis it was 0%. For the same compound, the “Death rate after 48 h (%)” value in data set [3] (dosage 7.44 μg a.i./bee) and in [3] (dosage 14.3 μg a.i./bee) was 5.0% in each case. Also, the “Death number after 24 h” value in data set [3] (dosage 7.44 μg a.i./bee) and in data set [3] (dosage 14.3 μg a.i./bee) was 0 in each case. The “Death number after 48 h” value in data set [3] (dosage 7.44 μg a.i./bee) is 0 and 1; in data set [3] (dosage 14.3 μg a.i./bee), 0 and 1.

For `CC(C)(C)OO[C@@H]1CC(=O)[C@@]2(O)CC=CC[C@H]12` [Zyj06-92-2], the inhibition at 50 µg/mL in the data set on Sclerotinia sclerotiorum is 38%; in data set [1], 15%; with Pellicularia sasakii it was 41%; in the data set on Alternaria solani, above 60%; with Rhizoctonia cerealis, above 70%; in the data set on Botrytis cinerea, 30%. In addition, the pest or weed control at 100 µg/mL in [2] turned out to be 10%; in data set [4], 20%; in the data set on Caenorhabditis elegans, 20%; in the data set on Ostrinia furnacalis it was 10%.

`CCOC(=O)C1C(=O)O[C@]23CC=CC[C@@H]2CC[C@]13O` (some centres unmarked) [Zyj07-95]: the inhibition at 50 µg/mL in the data set on Sclerotinia sclerotiorum was above 50%; in the data set on wheat Gibberella zeae it was above 50%; in [1], 29%; in the data set with Pellicularia sasakii, 57%; with Alternaria solani it was above 60%; in the data set with Rhizoctonia cerealis, above 70%. Besides, the pest or weed control at 100 µg/mL in [2] was 10%; in [4], above 30%; in the data set with Ostrinia furnacalis, 10%. For the same compound, the “Death rate after 48 h (%)” value in data set [3] (dosage 9.36 μg a.i./bee) and in data set [3] (dosage 19.9 μg a.i./bee) was 0% in each case. In addition, the “Death number after 24 h” value in [3] (dosage 9.36 μg a.i./bee) and in data set [3] (dosage 19.9 μg a.i./bee) was 0 in each case. Besides, the “Death number after 48 h” value in data set [3] (dosage 9.36 μg a.i./bee) and in [3] (dosage 19.9 μg a.i./bee) was 0 each time.

Consider `C=CC[C@@H]1C[C@]2(O)CC(O)O[C@@]23CC=CC[C@H]13` (some centres unmarked) [Zyj07-29], for which the inhibition at 50 µg/mL is 7% with wheat Gibberella zeae; 25% in data set [1]; 0% in the data set on Pellicularia sasakii; 0% in the data set with Alternaria solani; 0% with Rhizoctonia cerealis; 5% in the data set with Cercospora arachidicola. In addition, the results for the inhibition at 50 µg/mL in the data set on Physalospora piricola and with Botrytis cinerea were 45% and 27%, respectively. Besides, the pest or weed control at 100 µg/mL is 15% in [2], above 30% in [4], above 30% in the data set on Caenorhabditis elegans and 10% with Ostrinia furnacalis. Besides, the “Death rate after 48 h (%)” value was found to be 5.0% in data set [3] (dosage 3.68 μg a.i./bee) and 0% in data set [3] (dosage 4.39 μg a.i./bee). In addition, the “Death number after 24 h” value in data set [3] (dosage 3.68 μg a.i./bee) and in data set [3] (dosage 4.39 μg a.i./bee) was 0 in each case. Besides, the “Death number after 48 h” value was 0 and 1 in [3] (dosage 3.68 μg a.i./bee); 0 in [3] (dosage 4.39 μg a.i./bee).

(Values after patent publication US11716992B2, “5A5B6C tricyclic spirolactone derivative, preparation method therefor and use thereof” (NANKAI UNIVERSITY, priority 2017, dated 2023).)
